From patent US20110306638A1, “BENZISOXAZOLE PIPERIDINYL DERIVATIVES, PHARMACEUTICAL COMPOSITIONS COMPRISING THE DERIVATIVES AND THEIR USE” (NHWA PHARMA. CORPORATION, priority 2008, published 2011)
Read-outs that look alike come from different tables or passages of the source. Marks after values point to notes of the source that are not given here.

What was measured:
[1] = system: mice; experiment: Sedative effects in mice (spontaneous activities); format: in vivo; parameters: unit not given here; conditions: single dose 20 mg/kg
Description: Spontaneous activities of the mice were recorded by alternating current tube, Sedative effects were tested after single dose (20 mg/kg).

[2] = system: Kunming mice; experiment: Hot-plate test in mice; format: in vivo; conditions: 1 h post dose
Description: Kunming mice, SPF KM mice were purchased from […] SLAC LABORATORY ANIMAL CO. LTD and kept in normal environment.
The compounds were dissolved in water for injection at a concentration of 4 mg/ml, 2 mg/ml and 1 mg/ml and were given subcutaneously to animals.
(§1) Three different doses (10, 20, and 40 mg/kg) were administered to the test groups.
Morphine was used as a positive control and hot plate test was used.
30-40 mice (half male and half female) weighed from 18 to 23 gram were used. First, each mouse was placed on a hot plat at 55° C. to determine basic pain threshold for 2-3 times. Those animals with basic pain threshold of 5-30 s were qualified, unqualified mice were not used. 30 qualified mice were divided into five groups, including negative control group, positive control group, low-dose group, medium-dose group and high-dose group:
Mice in test groups received test sample solution (10 mg/kg, 20 mg/kg, 40 mg/kg) via subcutaneous injection in the neck. Positive control group received subcutaneous injection of morphine (2 mg/kg). One hour later, pain threshold values were determined for mice in each group as post-drug pain threshold. Percentage increase in pain threshold was calculated according to the following equation: […]

[3] = target: T1, 5-HT2A receptor (Homo sapiens, UniProt P28223); experiment: In-vitro competitive binding to 5-HT2A receptor, [3H]-Ketanserin, transformed HEK293 cells; conditions: for inhibition at 10 µM: read-out: 5-HT2A [3H]-Ketanserin inhibition percentage; for IC50 / Ki: affinity to 5-HT2A receptor, concentration gradient test; for inhibitory activity on 5-HT2A (in words): compared with Aripiprazole
T1 construct: expressed in transfected cells; host or cells: HEK293
Description: All test samples were dissolved in DMSO at a concentration of 0.01 mol/L, and then diluted with deionized water to 100 umol/L.
HEK293 cells were transformed with plasmid carriers containing the gene coding for 5-HT2A receptor protein by using calcium phosphate transformation. Stable cell strains which could stably express 5-HT2A receptor protein were obtained from the transformed cells by cultivating in a culture media containing G418, selecting monoclones of the cell and performing radioactive ligand binding assay.
Beckman LS 6500 Scintillation Counter.
HEK-293 cells were infected with recombined viruses containing various genes described above. […] Cells were centrifuged at 1000 rpm for 5 min Culture media was discarded, and cell bodies were collected and stored at −20° C. in a freezer. The cell bodies were resuspended with Tris-HCl reaction buffer during assay.
After incubation at 37° C. for 15 min, the reaction mixture was immediately transferred into ice bath to terminate the reaction; the reaction mixture was quickly filtered through GF/C glass cellulose filter on a Millipore cell sample collector, and was then washed with eluting solution (50 mM Tris-HCl, PH 7.7, 3 ml×3) and dried in a microwave for 8-9 min. The filter was transferred into a 0.5 ml centrifuge tube, and 500 μl lipid soluble scintillation fluid was added. The centrifuge tube was allowed to stand in darkness for more than 30 min. Radioactivity was determined by counting Inhibition percentage of each compound on isotope ligand binding was calculated according to the following equation:
inhibition percentage(I %)=cpm of overall binding tube−cpm of compound/cpm of overall binding tube−cpm of nonspecific binding tube×100%.
Each compound was tested in two duplicate test tubes and two separate tests were performed.

[4] = target: T2, 5-HT reuptake by brain synapses (Rattus norvegicus, UniProt P31652); experiment: [3H]5-HT reuptake test in rat brain synapses; format: biochemical; conditions: for inhibitory activity on 5-HT reuptake (in words): at 10 μmol/L, compared with Dutoxetine; for inhibition at 10 µM: final concentration 10 umol/L, rat brain synapses, read-out: 5-HTU [3H] 5-HT reuptake inhibition percentage Mean
T2 construct: forehead cortex was obtained for [^3H]5-HT, [^3H]NA reuptake test; from tissue; host or cells: rat (SD) forebrain cortex synaptosomes
Description: The method was as follows:
Male SD rats were killed by cervical dislocation, heads were immediately cut and brains were obtained and put on ice, related brain tissues were dissected (forehead cortex was obtained for [^3H]5-HT, [^3H]NA reuptake test, corpus striatum was obtained for [^3H]DA reuptake).
After the sample was weighed, 10 folds (V/W) ice cold 0.32 mol/L sucrose solution was added.
According to [a. […] 5-HT was added and after incubation in water bath at 37° C. for 10 min, the reaction mixture was immediately taken out of the water bath and 2 ml ice cold 150 mmol/L Tris-HCl was added to terminate the reaction. The sample was collected on a round glass fiber filter by vacuum filtration and washed three times with 3 ml ice cold Tris-HCl buffer. The filter membrane was removed, dried in a far-infrared oven for 15 min, then transferred into a EP tube, in which 1.5 ml scintillation fluid was added, left overnight and detected by a scintillation counter. The test sample was not added into solvent controlled overall binding tube or non-specific binding tube. 50 μl solvent was added into the overall binding tube, and in [^3H] 5-HT reuptake test, 600 μmol/L cocaine was added into the non-specific binding tube.

[5] = system: Kunming mice; experiment: Acetic acid-induced abdominal writhing test in mice; format: in vivo
Description: Kunming mice, SPF KM mice purchased from […] SLAC LABORATORY ANIMAL CO. LTD and kept in normal environment.
The compounds were dissolved in water for injection at a concentration of 4 mg/ml, 2 mg/ml and 1 mg/ml and were given intragastrically to animals.
as §1
Aspirin was used as a positive control and acetic acid writhing test was used.
30 mice (half male and half female) weighing 18-23 g were divided into five groups, including negative control group, positive control group, low dose group, medium dose group and high dose group:
Mice in test group received test drug (10 mg/kg, 20 mg/kg, 40 mg/kg) via intragastric administration. Negative control group received physiological saline (20 ml/kg) via oral administration. Positive control group received aspirin (200 mg/kg) via oral administration. One hour later, each group received 0.7% acetic acid 10 ml/kg intraperitoneally. Five minutes later, the number of writhes was counted within the subsequent 15 min period; inhibition percentage of writhing response in each test group was calculated by the following equation: […]

[6] = 10 mg/kg intragastric administration
[7] = 20 mg/kg intragastric administration
[8] = 40 mg/kg intragastric administration

T2 sequence (P31652 whole entry): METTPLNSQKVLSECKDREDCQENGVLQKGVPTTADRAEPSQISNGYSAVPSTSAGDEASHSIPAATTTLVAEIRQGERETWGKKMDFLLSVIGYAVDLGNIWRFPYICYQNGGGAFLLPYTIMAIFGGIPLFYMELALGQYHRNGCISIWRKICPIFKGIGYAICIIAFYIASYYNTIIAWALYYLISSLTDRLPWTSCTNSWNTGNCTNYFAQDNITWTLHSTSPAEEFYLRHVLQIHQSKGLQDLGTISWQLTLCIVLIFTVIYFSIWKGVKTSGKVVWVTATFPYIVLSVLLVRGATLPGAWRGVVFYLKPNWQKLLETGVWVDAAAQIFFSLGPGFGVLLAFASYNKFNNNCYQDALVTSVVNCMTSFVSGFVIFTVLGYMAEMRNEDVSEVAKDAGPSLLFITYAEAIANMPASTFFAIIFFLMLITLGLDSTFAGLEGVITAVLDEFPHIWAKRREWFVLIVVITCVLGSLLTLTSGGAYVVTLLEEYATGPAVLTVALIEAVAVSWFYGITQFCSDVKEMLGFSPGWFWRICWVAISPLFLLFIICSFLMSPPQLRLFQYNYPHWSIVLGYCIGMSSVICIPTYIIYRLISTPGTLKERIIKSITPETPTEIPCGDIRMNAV
T1 sequence (P28223 whole entry): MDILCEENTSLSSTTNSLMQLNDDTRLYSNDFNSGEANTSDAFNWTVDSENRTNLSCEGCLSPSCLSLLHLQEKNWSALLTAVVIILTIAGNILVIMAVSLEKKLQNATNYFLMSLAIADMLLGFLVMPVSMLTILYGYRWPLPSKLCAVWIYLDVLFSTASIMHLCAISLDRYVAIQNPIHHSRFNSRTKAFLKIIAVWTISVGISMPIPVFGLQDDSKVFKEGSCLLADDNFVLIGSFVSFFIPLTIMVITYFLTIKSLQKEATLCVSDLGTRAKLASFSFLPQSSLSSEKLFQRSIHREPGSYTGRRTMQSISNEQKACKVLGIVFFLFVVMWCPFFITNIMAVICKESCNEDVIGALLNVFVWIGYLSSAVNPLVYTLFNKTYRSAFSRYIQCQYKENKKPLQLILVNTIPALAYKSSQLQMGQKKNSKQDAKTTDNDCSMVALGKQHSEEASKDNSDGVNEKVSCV

Fc1ccc2c(C3CCN(CCCn4cnc5ccc(F)cc54)CC3)noc2c1 [III-1, 6-fluoro-3-(1-(3-(6-fluoro-1H-benzo[d]imidazol-1-yl)propyl)piperidin-4-yl)benzo[d]isoxazole]
Sedative effect [1]: 54*

CN1CC[C@]23c4c5ccc(O)c4O[C@H]2[C@@H](O)C=C[C@H]3[C@H]1C5 [Morphine, reference compound]
Percentage increase in pain threshold ([2]; positive control, 2 mg/kg S.c., hot plate 55° C.): 202.5** %

Fc1ccc2c(C3CCN(CCn4ccc5ccccc54)CC3)noc2c1 [II-1, 3-(1-(2-(1H-indol-1-yl)ethyl)piperidin-4-yl)-6-fluorobenzo[d]isoxazole]
inhibition at 10 µM [3]: 99.5% | Sedative effect [1]: 43*

N#Cc1ccc2ncn(CCCCN3CCC(c4noc5cc(F)ccc45)CC3)c2c1 [III-3, 1-(4-(4-(6-fluorobenzo[d]isoxazol-3-yl)piperidin-1-yl)butyl)-1H-benzo[d]imidazole-6-carbonitrile]
Sedative effect [1]: 52*

Fc1ccc2c(C3CCN(CCCCn4ccc5ccc(F)cc54)CC3)noc2c1 [II-8, 6-fluoro-3-(1-(4-(6-fluoro-1H-indol-1-yl)butyl)piperidin-4-yl)benzo[d]isoxazole]
IC50 [3]: 5.33 nM | Ki [3]: 2.79 nM | inhibitory activity on 5-HT2A (in words) [3]: potent inhibitory activities | inhibition at 10 µM ([3]; final concentration 10 umol/L): 100% | inhibitory activity on 5-HT reuptake (in words) [4]: potent inhibitory activities | inhibition at 10 µM [4]: 107% | Inhibition percentage of writhing response [5, 6]: 95.88* % | Inhibition percentage of writhing response [5, 7]: 96.46** % | Inhibition percentage of writhing response [5, 8]: 100.0** % | Percentage increase in pain threshold ([2]; 10 mg/kg S.c.): 97.49% | Percentage increase in pain threshold ([2]; 20 mg/kg S.c.): 160.50** % | Percentage increase in pain threshold ([2]; 40 mg/kg S.c.): 172.81* % | Sedative effect [1]: 42*

Fc1ccc2c(C3CCN(CCCCn4ccc5ccc(Cl)cc54)CC3)noc2c1 [II-10, 3-(1-(4-(6-chloro-1H-indol-1-yl)butyl)piperidin-4-yl)-6-fluorobenzo[d]isoxazole]
Sedative effect [1]: 99**

Fc1ccc2c(C3CCN(CCCn4ccc5ccccc54)CC3)noc2c1 [II-2, 3-(1-(3-(1H-indol-1-yl)propyl)piperidin-4-yl)-6-fluorobenzo[d]isoxazole]
Sedative effect [1]: 44*

COC(=O)c1ccc2ccn(CCCN3CCC(c4noc5cc(F)ccc45)CC3)c2c1 [II-7, methyl 1-(3-(4-(6-fluorobenzo[d]isoxazol-3-yl)piperidin-1-yl)propyl)-1H-indole-6-carboxylate]
Sedative effect [1]: 96**

Fc1ccc2c(C3CCN(CCCCn4ccc5ccccc54)CC3)noc2c1 [II-3, 3-(1-(4-(1H-indol-1-yl)butyl)piperidin-4-yl)-6-fluorobenzo[d]isoxazole]
IC50 [3]: 1.66 nM | Ki [3]: 1.12 nM | inhibitory activity on 5-HT2A (in words) [3]: potent inhibitory activities | inhibition at 10 µM ([3]; final concentration 10 umol/L): 100% | inhibitory activity on 5-HT reuptake (in words) [4]: potent inhibitory activities | inhibition at 10 µM [4]: 95.9% | Inhibition percentage of writhing response [5, 6]: 98.65** % | Inhibition percentage of writhing response [5, 7]: 100.0** % | Inhibition percentage of writhing response [5, 8]: 100.0** % | Percentage increase in pain threshold ([2]; 10 mg/kg S.c.): 95.48* % | Percentage increase in pain threshold ([2]; 20 mg/kg S.c.): 194** % | Percentage increase in pain threshold ([2]; 40 mg/kg S.c.): 133% | Sedative effect [1]: 35

Fc1ccc2c(C3CCN(CCCn4cnc5ccccc54)CC3)noc2c1 [II-11, 3-(1-(3-(1H-benzo[d]imidazol-1-yl)propyl)piperidin-4-yl)-6-fluorobenzo[d]isoxazole]
inhibition at 10 µM [3]: 99.6% | Sedative effect [1]: 0

Fc1ccc2c(C3CCN(CCOn4nnc5ccc(Cl)cc54)CC3)noc2c1 [IV-3, 3-(1-(2-(6-chloro-1H-benzo[d][1,2,3]triazol-1-yloxy)ethyl)piperidin-4-yl)-6-fluorobenzo[d]isoxazole]
inhibition at 10 µM [3]: 92.8% | Sedative effect [1]: 67*

N#Cc1ccc2ccn(OCCCN3CCC(c4noc5cc(F)ccc45)CC3)c2c1 [IV-2, 1-(3-(4-(6-fluorobenzo[d]isoxazol-3-yl)piperidin-1-yl)propoxy)-1H-indole-6-carbonitrile]
Sedative effect [1]: 52*

Fc1ccc2c(C3CCN(CCCn4ccc5ccc(F)cc54)CC3)noc2c1 [II-5, 6-fluoro-3-(1-(3-(6-fluoro-1H-indol-1-yl)propyl)piperidin-4-yl)benzo[d]isoxazole]
Sedative effect [1]: 65*

Fc1ccc2c(C3CCN(CCCCCn4ccc5ccccc54)CC3)noc2c1 [II-4, 3-(1-(5-(1H-indol-1-yl)pentyl)piperidin-4-yl)-6-fluorobenzo[d]isoxazole]
inhibition at 10 µM [3]: 99.9% | Sedative effect [1]: 91**

N#Cc1ccc2ccn(CCCN3CCC(c4noc5cc(F)ccc45)CC3)c2c1 [II-6, 1-(3-(4-(6-fluorobenzo[d]isoxazol-3-yl)piperidin-1-yl)propyl)-1H-indole-6-carbonitrile]
IC50 [3]: 4.78 nM | Ki [3]: 3.22 nM | inhibitory activity on 5-HT2A (in words) [3]: potent inhibitory activities | inhibition at 10 µM ([3]; final concentration 10 umol/L): 100% | inhibitory activity on 5-HT reuptake (in words) [4]: potent inhibitory activities | inhibition at 10 µM [4]: 96.7% | Inhibition percentage of writhing response [5, 6]: 74.09* % | Inhibition percentage of writhing response [5, 7]: 69.55% | Inhibition percentage of writhing response [5, 8]: 100.0** % | Percentage increase in pain threshold ([2]; 10 mg/kg S.c.): 41.11% | Percentage increase in pain threshold ([2]; 20 mg/kg S.c.): 73.68* % | Percentage increase in pain threshold ([2]; 40 mg/kg S.c.): 72.38* % | Sedative effect [1]: 75**

Fc1ccc2c(C3CCN(CCCn4ncc5ccccc54)CC3)noc2c1 [II-13, 3-(1-(3-(1H-indazol-1-yl)propyl)piperidin-4-yl)-6-fluorobenzo[d]isoxazole]
Sedative effect [1]: 66*

Fc1ccc2c(C3CCN(CCCCn4cnc5ccccc54)CC3)noc2c1 [II-12, 3-(1-(4-(1H-benzo[d]imidazol-1-yl)butyl)piperidin-4-yl)-6-fluorobenzo[d]isoxazole]
inhibition at 10 µM [3]: 99.5% | Sedative effect [1]: 52*

N#Cc1ccc2ccn(OCCN3CCC(c4noc5cc(F)ccc45)CC3)c2c1 [IV-1, 1-(2-(4-(6-fluorobenzo[d]isoxazol-3-yl)piperidin-1-yl)ethoxy)-1H-indole-6-carbonitrile]
Sedative effect [1]: 20

CC(=O)Oc1ccccc1C(=O)O [Aspirin, reference compound]
Inhibition percentage of writhing response ([5]; positive control, 200 mg/kg oral, 1 h before acetic acid): 95.05** %
